# Laboratory results: PubChem BioAssay (NCI)
#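 Interpolation was linear, between the two tested concentrations surrounding the appropriate level; five concentrations were tested over 48 hours in 96-well plates. GI50: concentration for 50% inhibition of growth. TGI: total growth inhibition.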
# What was measured:
# Assay in all cases: growth of human tumour cells (NCI), 48 h
# EKVX NSCLC = system: EKVX NSCLC
# IGROV1 ovarian = system: IGROV1 ovarian
# OVCAR-5 ovarian = system: OVCAR-5 ovarian
# SK-MEL-5 melanoma = system: SK-MEL-5 melanoma
# SK-OV-3 ovarian = system: SK-OV-3 ovarian
# SNB-19 CNS = system: SNB-19 CNS
# TK-10 renal = system: TK-10 renal
# U251 CNS = system: U251 CNS
# HL-60(TB) leukemia = system: HL-60(TB) leukemia
# MDA-MB-435 = system: MDA-MB-435
SMILES,TGI (EKVX NSCLC) [µM],TGI (IGROV1 ovarian) [µM],TGI (OVCAR-5 ovarian) [µM],TGI (SK-MEL-5 melanoma) [µM],TGI (SK-OV-3 ovarian) [µM],TGI (SNB-19 CNS) [µM],TGI (TK-10 renal) [µM],TGI (U251 CNS) [µM],TGI (HL-60(TB) leukemia) [µM],TGI (MDA-MB-435) [µM],GI50 (EKVX NSCLC) [µM],GI50 (HL-60(TB) leukemia) [µM],GI50 (IGROV1 ovarian) [µM],GI50 (MDA-MB-435) [µM],GI50 (OVCAR-5 ovarian) [µM],GI50 (SK-MEL-5 melanoma) [µM],GI50 (SNB-19 CNS) [µM],GI50 (TK-10 renal) [µM],GI50 (U251 CNS) [µM]
N#CCCN(CCC#N)c1ccc(/C=C(\NC(=O)c2cc([N+](=O)[O-])ccc2Cl)C(=O)Nc2ccccc2)cc1,> 100,> 100,> 100,> 100,> 100,> 100,> 100,> 100,–,–,–,–,–,–,–,–,–,–,–
O=C(O)c1cc(=O)c2c(OCC(O)COc3cccc4oc(C(=O)O)cc(=O)c34)cccc2o1,> 100,> 94.9,> 100,99.2,> 100,> 100,> 100,> 100,> 100,> 100,–,–,–,–,–,–,–,–,–
Cc1ccc([N+](=O)[O-])cc1S(=O)(=O)Nc1ccc(C2=NOC(c3cccs3)C2)cc1 (stereo not given),65,30,> 100,22.5,52.2,53.1,50.3,–,25.7,10.4,–,–,–,–,–,–,–,–,–
c1ccc(C(NC2=NCCO2)c2ccccc2)cc1,> 10,> 10,> 10,> 10,> 10,> 10,> 10,> 10,> 10,> 10,–,–,–,–,–,–,–,–,–
CCOC(=O)C(Cc1cn(C(C)=O)c2ccccc12)P(=O)(OCC)OCC (stereo not given),–,> 100,> 100,> 100,> 100,> 100,> 100,> 100,–,–,–,–,–,–,–,–,–,–,–
C/C(=N\NC(=S)N(C)C)c1nc2ncccc2[nH]1,> 100,70,> 100,1.87,5.53,36.1,> 100,> 100,1.32,> 100,–,–,–,–,–,–,–,–,–
COc1cc2cc(C(=O)Nc3cc4n(n3)-c3ccccc3C4)[nH]c2c(OC)c1OC,11.5,9.79,17.8,5.23,19.4,27.6,9.27,22.7,6.1,5.28,–,–,–,–,–,–,–,–,–
O=C(Nc1ccc(-n2cc(-c3ccncc3)c(-c3ccc(O)c(Cl)c3)n2)cc1)Nc1ccc(Cl)c(C(F)(F)F)c1,25.4,30.3,19.1,10.7,–,19,9.78,10.1,6.27,15.3,3.21,2.54,4.42,2.89,5.29,2.87,5.06,2.71,2.53
CCCn1cc2c(SC)nc(SC)nc2n1,> 100,> 100,> 100,> 100,–,> 100,> 100,> 100,> 100,–,–,–,–,–,–,–,–,–,–
O=c1/c(=C/c2ccc([N+](=O)[O-])o2)sc2n1[C@@H](c1ccc(Cl)cc1)C=C(c1cc(F)c(Cl)cc1Cl)N=2,–,31.7,30.6,28.8,50.8,33.6,36.2,21.7,49.2,36.2,–,–,–,–,–,–,–,–,–
COc1ccc(-c2cc(-c3ccc(O)cc3O)c(C#N)c(=O)[nH]2)cc1,41.6,–,43.3,34.6,33.8,53.3,> 100,41,65.4,36.4,–,–,–,–,–,–,–,–,–
C/C(=N\NC(=S)NCCCCNC(=S)N/N=C(\C)c1ccccn1)c1ccccc1,> 100,> 28.8,> 85.6,–,38.9,> 87.1,40.6,15.6,–,> 100,–,–,–,–,–,–,–,–,–
COc1ccc(C(O)(c2ccccc2)c2nccc3ccccc23)cc1 (stereo not given),36.9,> 100,> 100,12.7,> 100,> 100,> 100,> 100,> 100,> 100,–,–,–,–,–,–,–,–,–
CCOC(=O)CCSc1nc2ccc(I)cc2c(=O)n1Cc1ccccc1,82.4,> 100,> 100,32,> 100,> 100,> 88.2,> 100,> 73.7,> 89,–,–,–,–,–,–,–,–,–
COc1cc2c(cc1OCCCOS(C)(=O)=O)N=C[C@@H]1CCCN1C2=O,> 100,> 100,–,> 100,> 100,> 100,> 100,> 100,> 100,> 100,–,–,–,–,–,–,–,–,–
Cn1ncc2c(Nc3cccc(Cl)c3)nc(Nc3cccc(Cl)c3)nc21,54.8,> 66.6,38.8,> 51.6,54,> 94,27.9,52.1,44.9,> 57.6,–,–,–,–,–,–,–,–,–
O=C(O)CCc1nc2ccccc2[nH]1,> 100,> 100,> 100,> 100,> 100,> 100,> 100,> 100,> 100,> 100,–,–,–,–,–,–,–,–,–
